Results published in ChEMBL document CHEMBL4000185, “Pyrimidine-Based Inhibitors of Dynamin I GTPase Activity: Competitive Inhibition at the Pleckstrin Homology Domain” (J Med Chem, 2017).
The source made the active and inactive calls. The calls are words filed in the database; no cut-off is given here.

How the values were obtained:
[1] = Inhibition of phosphatidyl serine liposome-stimulated sheep brain dynamin 1 GTPase activity assessed as reduction orthophosphate release using GTP as substrate after 30 mins by malachite green reagent based colorimetric assay; parameters: species or system Ovis aries
Ovis aries = species: Ovis aries; experiment: Inhibition of phosphatidyl serine liposome-stimulated sheep brain dynamin 1 GTPase activity assessed as reduction orthophosphate release up to 300 uM using GTP as substrate after 30 mins by malachite green reagent based colorimetric assay relative to control

Row | IC50 ([1]; read-out: IC50) [µM] | inhibition (Ovis aries) | SMILES | also measured
1 | 52 |  | CCCN(CC1CC1)c1cc(C)nc(NCCN(C)C)n1 | 
2 |  |  | CCCCCCCCCCCCCCNc1nc(C)cc(NCCN(C)C)n1 | IC50 [1]: Not Active
3 |  | inactive | Cc1cc(NCc2ccccc2)nc(Cl)n1 | 
4 | 4.6 |  | CCCCCCCCCCCCNc1cc(C)nc(NCCO)n1 | 
5 | 2.9 |  | CCCCCCCCCCNc1ccnc(NCCN(C)C)n1 | 
6 |  | inactive | CCC(C)Nc1cc(C)nc(Cl)n1 (configuration not stated) | 
7 |  | inactive | CCCCCCCCNc1cc(C)nc(Cl)n1 | 
8 | 5.2 |  | CCCCCCCCCCN(CCCCCCCCCC)c1nc(C)cc(CCN(C)C)n1 | 
9 |  | inactive | Cc1cc(Cl)nc(NCCCN(C)C)n1 | 
10 |  | inactive | CCCCNc1cc(C)nc(Cl)n1 | 
11 |  | inactive | COc1ccc(CNc2nc(C)cc(Cl)n2)cc1 | 
12 |  | inactive | CCCNc1cc(C)nc(Cl)n1 | 
13 | 7.5 |  | CCCCCCCCCCN(CCCCCCCCCC)c1cc(C)nc(NCCN(C)C)n1 | 
14 | 18.6 |  | CCCCCCCCCCCCNc1nc(C)cc(NCCN)n1 | 
15 | 32.5 |  | CCCCCCCCCCCCNc1cc(C)nc(Cl)n1 | 
16 | 4.7 |  | CCCCCCCCCCCCNc1nc(C)cc(NCCC)n1 | 
17 | 44.9 |  | CCCCCCCCCCNc1nccc(NCCN(C)C)n1 | 
18 | 2.5 |  | CCCCCCCCNc1nc(C)cc(NCCN(C)C)n1 | 
19 | 5.3 |  | CCCCCCCCCCCCNc1cc(C)nc(NCCN)n1 | 

Row | IC50 ([1]; read-out: IC50) [µM] | inhibition (Ovis aries) | SMILES | also measured
20 |  | inactive | Cc1cc(Cl)nc(N(C)C)n1 | 
21 | 49 |  | CCCCCCCCCCCCNc1cc(C)nc(NCCCN(C)C)n1 | 
22 |  | inactive | CCCCCCCCNc1nc(C)cc(Cl)n1 | 
23 | 59.8 |  | CCCN(CC1CC1)c1nc(C)cc(NCCN(C)C)n1 | 
24 |  | inactive | CCCCCCNc1cc(C)nc(Cl)n1 | 
25 | 4.4 |  | CCCCCCCCCCCCCCCCCCNc1nc(C)cc(NCCN(C)C)n1 | 
26 |  | inactive | Cc1cc(Cl)nc(NCCN)n1 | 
27 |  | inactive | Cc1cc(Cl)nc(NCc2ccccc2)n1 | 
28 | 61.8 |  | CCCCCCCCCCCCNc1cc(C)nc(NCCC)n1 | 
29 | 8.4 |  | CCCCCCCCCCCCCCCCCCNc1cc(C)nc(NCCN(C)C)n1 | 
30 |  | inactive | CCCCCCNc1nc(C)cc(Cl)n1 | 
31 | 5.8 |  | CCCCCCNc1nc(C)cc(NCCN(C)C)n1 | 
32 |  | inactive | Cc1cc(NC2CCCCC2)nc(Cl)n1 | 
33 | 1.8 |  | CCCCCCCCCCCCNc1ccnc(NCCN(C)C)n1 | 
34 | 9.3 |  | CCCCCCCCCCNc1nc(C)cc(NCCN(C)C)n1 | 
35 | 1.6 |  | CCCCCCCCNc1cc(C)nc(NCCN(C)C)n1 | 
36 |  | inactive | CCC(C)Nc1nc(C)cc(Cl)n1 (configuration not stated) | 
37 |  | inactive | CCCCCCCCCCCCCCNc1cc(C)nc(Cl)n1 | 
38 |  | inactive | CCCN(CC1CC1)c1cc(C)nc(Cl)n1 | 

Row | IC50 ([1]; read-out: IC50) [µM] | inhibition (Ovis aries) | SMILES | also measured
39 |  | inactive | CCCNc1nc(C)cc(Cl)n1 | 
40 |  | inactive | CCNc1nc(C)cc(Cl)n1 | 
41 | 5.1 |  | CCCCCCCCCCNc1cc(NCCN(C)C)ncn1 | 
42 |  | inactive | CCCN(CC1CC1)c1nc(C)cc(Cl)n1 | 
43 | 3.2 |  | CCCCCCCCCCCCCCNc1cc(C)nc(NCCN(C)C)n1 | 
44 | 5.5 |  | CCCCCCCCCCCCNc1nc(C)cc(NCCO)n1 | 
45 |  | inactive | Cc1cc(Cl)nc(NCCNC(=O)OC(C)(C)C)n1 | 
46 |  | inactive | CCCCNc1nc(C)cc(Cl)n1 | 
47 |  | inactive | Cc1cc(Cl)nc(NC2CCCCC2)n1 | 
48 | 14 |  | CCCCCCCCCCCCNc1cc(C)nc(N(C)C)n1 | 
49 | 10.6 |  | CCCCCCNc1cc(C)nc(NCCN(C)C)n1 | 
50 | 37.7 |  | CCCCCCCCCCCCNc1nc(C)cc(NCCCN(C)C)n1 | 
51 | 2 |  | CCCCCCCCCCCCNc1nccc(NCCN(C)C)n1 | 
52 | 20.6 |  | Cc1cc(NC2CCCCC2)nc(NCCN(C)C)n1 | 
53 | 3.8 |  | Cc1cc(NCCN(C)C)nc(NC2CCCCC2)n1 | 
54 | 3.3 |  | CCCCCCCCCCCCNc1nc(C)cc(N(C)C)n1 | 
55 | 7.7 |  | CCCCCCCCCCCCNc1cc(NCCN(C)C)ncn1 | 
56 | 3.8 |  | CCCCCCCCCCNc1cc(C)nc(NCCN(C)C)n1 | 

Row | SMILES | IC50 ([1]; read-out: IC50) [µM] | inhibition (Ovis aries) | also measured
57 | CCCCCCCCCCCCNc1cc(C)nc(NCCN(C)C)n1 | 1.1 |  | 
